Counter-ions that a name gives are not always drawn.
System: MV4-11, an acute myeloid leukemia cell line
Test: WST-8 cell viability assay (inhibition of cancer cell proliferation) in MV4-11
Format: cell-based
Conditions: Homo sapiens, MV4-11 cells, 72 hours, WST-8 assay; for inhibition at 10 µM: compound at 10 μM; for IC50: final concentration 0.02 to 100 μM
Experimental: In order to confirm the inhibition of cancer cell proliferation of the compound, the WST-8 assay (Cyto X cell viability assay kit, LPS solution, Daejeon, Korea) was performed according to the manufacturer's protocol. MV4-11, an acute myeloid leukemia cell line, was inoculated into a 96-well plate at 3×10^3 per well. The cells were cultured for 24 hours, and treated with the compound at a concentration of 10 μM. After 72 hours, the culture medium was discarded and a chromatographic solution was added. Following a 1-hour incubation at 37° C., color development was observed, and the absorbance was measured at 480 nm using a Versamax microplate reader (Molecular Devices, CA, USA). In addition, in order to confirm the IC50 value of the compound in MV4-11, the cells were treated with the compound with the final concentration of 0.02 to 100 μM in the same manner as the experiment above.

IC50 [µM]	SMILES	inhibition at 10 µM [%]
3.42	CCN1CCCC(Nc2cc(NC(=O)c3ccc(C(C)(C)C)cc3)ccc2C(=O)OC)C1 [Example D-1, methyl 4-(4-(tert-butyl)benzamido)-2-((1-ethylpiperidin-3-yl)amino)benzoate]	100
4.48	CC(C)(C)c1ccc(C(=O)Nc2ccc(C(N)=O)c(NC3CCCN(C(=O)c4ccccc4)C3)c2)cc1 (stereo not shown) [Example C-6, N-(3-((1-benzoylpiperidin-3-yl)amino)-4-carbamoylphenyl)-4-(tert-butyl)benzamide]	97.1
1.7	CC(C)(C)c1ccc(C(=O)Nc2ccc(C(N)=O)c(NC3CCNCC3)c2)cc1 [Example D-11, 4-(tert-butyl)-N-(4-carbamoyl-3-(piperidin-4-ylamino)phenyl)benzamide trifluoroacetate]	70
4.3	CN1CCCC(Nc2cc(NC(=O)c3ccc(C(C)(C)C)cc3)ccc2C(N)=O)C1 [Example D-9, 4-(tert-butyl)-N-(4-carbamoyl-3-((1-methylpiperidin-3-yl)amino)phenyl)benzamide]	100
4.5	CCCCN1CCCC(Nc2cc(NC(=O)c3ccc(C(C)(C)C)cc3)ccc2C(N)=O)C1 [Example D-6, 4-(tert-butyl)-N-(3-((1-butylpiperidin-3-yl)amino)-4-carbamoylphenyl)benzamide]	95.5
2.2	CCCCN1CCCC(Nc2cc(NC(=O)c3ccc(C(C)(C)C)cc3)ccc2C(=O)OC)C1 [Example D-4, methyl 4-(4-(tert-butyl)benzamido)-2-((1-butylpiperidin-3-yl)amino)benzoate]	97.8
2	CC(C)(C)c1ccc(C(=O)Nc2ccc(C(N)=O)c(NC3CCCNC3)c2)cc1 [Example D-10, 4-(tert-butyl)-N-(4-carbamoyl-3-(piperidin-3-ylamino)phenyl)benzamide trifluoroacetate]	70
2.2	COC(=O)c1ccc(NC(=O)c2ccc(C(C)(C)C)cc2)cc1NC1CCCN(Cc2ccccc2)C1 (stereo not shown) [Example E-1, methyl 2-((1-benzylpiperidin-3-yl)amino)-4-(4-(tert-butyl)benzamido)benzoate]	70.1
4.59	COC(=O)c1ccc(NC(=O)c2ccc(C(C)(C)C)cc2)cc1NC1CCCN(C)C1 [Example D-7, methyl 4-(4-(tert-butyl)benzamido)-2-((1-methylpiperidin-3-yl)amino)benzoate]	100
9.6	CC(C)(C)c1ccc(C(=O)Nc2ccc(C(=O)O)c(NC3CCCN(Cc4ccccc4)C3)c2)cc1 (stereo not shown) [Example E-2, 2-((1-benzylpiperidin-3-yl)amino)-4-(4-(tert-butyl)benzamido)benzoic acid]	71.1

Second part, the molecule before the results:

SMILES	IC50 [µM]	inhibition at 10 µM [%]
CCCCCCCCNC(=O)N1CCCC(Nc2cc(NC(=O)c3ccc(C(C)(C)C)cc3)ccc2C(N)=O)C1 (stereo not shown) [Example B-39, 3-((5-(4-(tert-butyl)benzamido)-2-carbamoylphenyl)amino)-N-octylpiperidine-1-carboxamide]	3.26	100
COc1cc([N+](=O)[O-])ccc1NC(=O)N1CCCC(Nc2cc(NC(=O)c3ccc(C(C)(C)C)cc3)ccc2C(N)=O)C1 (stereo not shown) [Example B-33, 3-((5-(4-(tert-butyl)benzamido)-2-carbamoylphenyl)amino)-N-(2-methoxy-4-nitrophenyl)piperidine-1-carboxamide]	–	80.5
CC(C)(C)c1ccc(C(=O)Nc2ccc(C(N)=O)c(NC3CCCN(S(=O)(=O)Cc4ccccc4)C3)c2)cc1 (stereo not shown) [Example A-15, N-(3-((1-(benzylsulfonyl)piperidin-3-yl)amino)-4-carbamoylphenyl)-4-(tert-butyl)benzamide]	4.1	95.9
CC(C)(C)c1ccc(C(=O)Nc2ccc(C(N)=O)c(NC3CCCN(C(=O)Nc4ccccc4)C3)c2)cc1 (stereo not shown) [Example B-12, 3-((5-(4-(tert-butyl)benzamido)-2-carbamoylphenyl)amino)-N-phenylpiperidine-1-carboxamide]	3.8	96.2
CCCCNC(=O)N1CCCC(Nc2cc(NC(=O)c3ccc(C(C)(C)C)cc3)ccc2C(=O)OC)C1 (stereo not shown) [Example B-4, methyl 4-(4-(tert-butyl)benzamido)-2-((1-(butylcarbamoyl)piperidin-3-yl)amino)benzoate]	15.3	84.6
CC(C)(C)c1ccc(C(=O)Nc2ccc(C(N)=O)c(NC3CCCN(C(=O)Nc4ccc(I)cc4)C3)c2)cc1 (stereo not shown) [Example B-24, 3-((5-(4-(tert-butyl)benzamido)-2-carbamoylphenyl)amino)-N-(4-iodophenyl)piperidine-1-carboxamide]	4.68	94
CCc1cccc(CC)c1NC(=O)N1CCCC(Nc2cc(NC(=O)c3ccc(C(C)(C)C)cc3)ccc2C(N)=O)C1 (stereo not shown) [Example B-18, 3-((5-(4-(tert-butyl)benzamido)-2-carbamoylphenyl)amino)-N-(2,6-diethylphenyl)piperidine-1-carboxamide]	5.32	93.7
CC(C)S(=O)(=O)N1CCCC(Nc2cc(NC(=O)c3ccc(C(C)(C)C)cc3)ccc2C(N)=O)C1 (stereo not shown) [Example A-18, 4-(tert-butyl)-N-(4-carbamoyl-3-((1-(isopropylsulfonyl)piperidin-3-yl)amino)phenyl)benzamide]	9.6	90.3
CC(C)(C)c1ccc(C(=O)Nc2ccc(C(N)=O)c(NC3CCCN(C(=O)NCc4cccc(F)c4)C3)c2)cc1 (stereo not shown) [Example B-15, 3-((5-(4-(tert-butyl)benzamido)-2-carbamoylphenyl)amino)-N-(3-fluorobenzyl)piperidine-1-carboxamide]	4.75	100
CC(C)(C)c1ccc(C(=O)Nc2ccc(C(N)=O)c(NC3CCCN(C(=O)Nc4ccc(C(F)(F)F)cc4)C3)c2)cc1 (stereo not shown) [Example B-36, 3-((5-(4-(tert-butyl)benzamido)-2-carbamoylphenyl)amino)-N-(4-(trifluoromethyl)phenyl)piperidine-1-carboxamide]	7.81	97.2
CC(C)(C)c1ccc(C(=O)Nc2ccc(C(N)=O)c(NC3CCCN(C(=O)NC4CCCCC4)C3)c2)cc1 (stereo not shown) [Example B-9, 3-((5-(4-(tert-butyl)benzamido)-2-carbamoylphenyl)amino)-N-cyclohexylpiperidine-1-carboxamide]	2.4	94.6
CN(C)S(=O)(=O)N1CCCC(Nc2cc(NC(=O)c3ccc(C(C)(C)C)cc3)ccc2C(N)=O)C1 (stereo not shown) [Example A-3, 4-(tert-butyl)-N-(4-carbamoyl-3-((1-(N,N-dimethylsulfamoyl)piperidin-3-yl)amino)phenyl)benzamide]	6.74	87.6

— patent publication US20260184681A1, “PIPERIDINE DERIVATIVE, SALT OF SAME, AND PHARMACEUTICAL COMPOSITION CONTAINING SAME AS ACTIVE INGREDIENT” (PHARMCADD CO., LTD., priority 2022, published 2026)
